Legend:
[1] = target: T1, calcitriol receptor (specific receptor protein from the intestines of juvenile pigs) (Sus scrofa, UniProt A3RGC1); assay: calcitriol-receptor test (competition with 3H-calcitriol); assay type: binding, pig; conditions: KF = concentration of test substance / concentration of calcitriol at 50% competition
T1 construct: a specific receptor protein from the intestines of juvenile pigs; from tissue; host or cells: intestines of juvenile pigs
T1 sequence (A3RGC1 1-427): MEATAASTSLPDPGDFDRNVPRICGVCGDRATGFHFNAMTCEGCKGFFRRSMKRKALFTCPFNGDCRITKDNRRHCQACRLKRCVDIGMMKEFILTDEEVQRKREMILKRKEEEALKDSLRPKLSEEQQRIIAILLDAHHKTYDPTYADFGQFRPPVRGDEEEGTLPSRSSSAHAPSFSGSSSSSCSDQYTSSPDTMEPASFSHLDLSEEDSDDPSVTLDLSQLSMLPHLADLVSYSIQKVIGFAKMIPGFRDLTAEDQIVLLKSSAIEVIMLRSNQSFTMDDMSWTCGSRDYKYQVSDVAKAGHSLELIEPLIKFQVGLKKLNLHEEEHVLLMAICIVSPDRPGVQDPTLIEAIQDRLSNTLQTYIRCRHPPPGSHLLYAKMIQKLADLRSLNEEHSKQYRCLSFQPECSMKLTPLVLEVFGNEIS
Procedure: It is carried out using a specific receptor protein from the intestines of juvenile pigs.
250 μl of a charcoal-dextran suspension is fed to each test tube and incubated at 4° C. for 20 minutes. Then, the samples are centrifuged at 10,000×g for 5 minutes at 4° C. The supernatant is decanted and measured in a β-counter after 1 hour of equilibration in Picofluor 15™.
It is defined as a quotient of the concentrations of the respective test substance and the reference substance, which are necessary for 50% competition:
KF=Concentration of test substance at 50% competition/Concentration of reference substance at 50% competition

HL 60 cells [2] = assay: differentiation induction of HL 60 cells to macrophages (NBT reduction); assay type: cell-based, human; conditions: DR = test substance dose / calcitriol dose for comparable semi-maximum actions; 96 hours incubation
Procedure: The differentiation-stimulating action of calcitriol analogues is also detected quantitatively.
It is known in the literature [Mangelsdorf, D. J. et al., J. Cell.
HL 60 cells are cultivated in tissue culture medium (RPMI 10% fetal calf serum) at 37° C. in an atmosphere of 5% CO2 in air.
For substance testing, the cells are centrifuged off, and 2.0×10^5 cells/ml in phenol red-free tissue culture medium is taken up. The test substances are dissolved in ethanol and diluted with tissue culture medium without phenol red to the desired concentration. The dilution stages are mixed with the cell suspension at a ratio of 1:10, and 100 μl each of this cell suspension that is mixed with substance is pipetted into an indentation of a 96-hole plate. For control, a cell suspension is mixed analogously with the solvent.
After incubation for 96 hours at 37° C. in 5% CO2 in air, 100 μl of an NBT-TPA solution (nitro blue tetrazolium (NBT), final concentration in the batch of 1 mg/ml, tetradecanoyl phorbolmyristate-13-acetate (TPA), final concentration in the batch of 2×10^−7 mol/l) is pipetted into each indentation of the 96-hole plate in the cell suspension.
By incubation for 2 hours at 37° C. and 5% CO2 in air, NBT is reduced to insoluble formazan because of the intracellular oxygen radical release, stimulated by TPA, in the cells that are differentiated to macrophages.
To complete the reaction, the indentations of the 96-hole plate are suctioned off, and the cells are affixed to the bottom of the plate by adding methanol and dried after affixing. To dissolve the intracellular formazan crystals that are formed, 100 μl of potassium hydroxide (2 mol/l) and 100 μl of dimethyl sulfoxide are pipetted into each indentation and ultrasonically treated for 1 minute. The concentration of formazan is measured by spectrophotometry at 650 nm.
As a yardstick for the differentiation induction of HL 60 cells to macrophages, the concentration of formed formazan applies.

[3] = acute hypercalcemic action in rats (serum calcium); assay type: in vivo; conditions: one-time subcutaneous administration, DR = test substance dose / calcitriol dose for comparable actions
Procedure: To determine the acute hypercalcemic action of various calcitriol derivatives, the test that is described below is carried out:
During the testing time, the rats are kept in special cages to determine the excretion of water and mineral substances. Urine is collected in 2 fractions (0-16 hours and 16-22 hours). An oral dose of calcium (0.1 mmol of calcium in 6.5% alpha-hydroxypropylcellulose, 5 ml/animal) replaces at 1600 hours the calcium intake that is lacking by food deprivation. At the end of the test, the animals are killed by decapitation and exsanguinated to determine the serum-calcium values. For the primary screen test in vivo, an individual standard dose (200 μg/kg) is tested. For selected substances, the result is supported by establishing a dose-effect relation.
A hypercalcemic action is shown in serum-calcium level values that are higher than in the control.
The significance of differences between substance groups and controls and between test substance and reference substance are supported with suitable statistical processes.

HL 60 cells [4] = assay: antagonism of the action of calcitriol in HL 60 cells; assay type: cell-based, human
Source text: In the series of 25-oxazole derivatives, the compounds with increasing chain length on the heterocycle in the case of constantly good receptor affinity show considerably weaker differentiation-stimulating agonistic activity in HL 60 cells (Tab. 1). […] This property is continued with increasing chain length in radical Z of general formula I.

SMILES	Competition Factor KF for Receptor Bonding [1]	Dose Ratio for Differentiation Induction in HL 60 Cells (HL 60 cells [2])	dose ratio DR for hypercalcemia [3]	antagonism of the action of calcitriol in HL 60 cells (HL 60 cells [4])
C=C1/C(=C\C=C2/CCC[C@]3(C)[C@@H]([C@H](C)/C=C/[C@@H](O)C4(c5ncc(CCC)o5)CC4)CC[C@@H]23)C[C@@H](O)C[C@@H]1O [Compound 14, (5Z,7E,22E)-(1S,3R,24R)-25-(5-Propyloxazol-2-yl)-26,27-cyclo-9,10-secocholesta-5,7,10(19),22-tetraene-1,3,24-triol]	2	1.9	300	–
C=C1C(=CC=C2CCCC3(C)C2CCC3C(C)C=CC(O)C2(c3ncc(CCCCC)o3)CC2)CC(O)CC1O [Compound 17, (5Z,7E,22E)-(1S,3R,24R)-25-(5-pentyloxazol-2-yl)-26,27-cyclo-9,10-secocholesta-5,7,10(19),22-tetraene-1,3,24-triol]	4	>100	–	antagonize the action of calcitriol
C=C1C(=CC=C2CCCC3(C)C2CCC3C(C)C=CC(O)C2(c3ncc(C)o3)CC2)CC(O)CC1O [Compound 15, (5Z,7E,22E)-(1S,3R,24R)-25-(5-methyloxazol-2-yl)-26,27-cyclo-9,10-secocholesta-5,7,10(19),22-tetraene-1,3,24-triol]	2	3.4	–	–
C=C1/C(=C\C=C2/CCC[C@]3(C)[C@@H]([C@H](C)/C=C/[C@@H](O)C4(c5ncc(CC)o5)CC4)CC[C@@H]23)C[C@@H](O)C[C@@H]1O [Compound 16, (5Z,7E,22E)-(1S,3R,24R)-25-(5-ethyloxazol-2-yl)-26,27-cyclo-9,10-secocholesta-5,7,10(19),22-tetraene-1,3,24-triol]	3	1.3	–	antagonize the action of calcitriol
